The results in this text go back to PMC12288536, “Development of an atrazine immunoassay based on highly catalytically active Au@PtNPs and specific nanobody” (Research Square, 2025).

Bounds are passed on as bounds.

Assay [1] deals with Nanobody-26. The assay is described as follows: ic-ELISA based on atrazine nanobody (indirect competitive). The settings on record: for IC50 (Nanobody): coating antigen 2e-BSA; for CR% (Nanobody): cross-reaction = IC50(atrazine)/IC50(analog). The format is binding, alpaca. On the procedure: In this study, ic-ELISA was first used to assess the effect of two coating antigens on the sensitivity of the nanobody. The optimal concentrations of nanobody and coating antigen were confirmed by the checkerboard method, and the sensitivity of nanobody was evaluated under optimal conditions. Detailed procedures for sensitivity assessment of nanobody were presented in the Supplementary Material.
Cross-reactivity evaluation was performed using the developed ic-ELISA for atrazine, simazine, terbuthylazine, terbutryn, cyanuric acid, ametryn, melamine, atrazine-2-hydroxy and 2-chloro-4,6-diamino-1,3,5-triazine. The above compounds were prepared into standard solutions at certain concentrations, and the standard inhibition curves were established. The cross-reactions were calculated according to the respective IC50 obtained from the standard inhibition curves and the following formula: Cross-reaction(CR%)=IC50(atrazine)∕IC50(the other structurally similar compound)

In assay [2] the test system is Au@PtNPs-nanobody probe. As to the kind of experiment: dc-ELISA based on Au@PtNPs-nanobody probe (direct competitive), incl. matrix effect evaluation. The class given is binding, alpaca. Particulars: for CR% (Au@PtNPs-nanobody): cross-reaction = IC50(atrazine)/IC50(analog); for IC50 (Au@PtNPs-nanobody): optimal conditions, 1×PBS containing 5% methanol. On the procedure:
The sodium chloride interference method was used to determine the optimal conditions for coupling. Adjust the Au@PtNPs-145 nm (10 mL) to the optimal pH with 0.1 M K2CO3, then the optimal amount of nanobody and BSA (0.1 g) were added dropwise to the solution and stirred for 30 minutes. PEG20000 (0.05 g) was then added to the above solution and incubated at 4°C overnight after stirring for 30 minutes. The probe was purified by fractionation and centrifugation at 4°C, and the precipitate was collected and re-dissolved in 1 mL of probe diluent (pH 7.2, PBS buffer containing 1% sucrose, 0.1% BSA, 0.1% Tween 20 and 0.1% alginate) at 4°C for storage and further use.
Au@PtNPs-nanobody was used to develop a new dc-ELISA, and the optimal concentrations of probe and coating antigen were confirmed by the checkerboard method, and the sensitivity of dc-ELISA was evaluated under optimal conditions. The cross-reactivity of the dc-ELISA to atrazine analogs was also evaluated to compare with the specificity of ic-ELISA.
Tap water, river water and soil without atrazine were selected as samples for the evaluation of matrix effects. The effect of tap water, river water and soil on the sensitivity of the detection method was evaluated using two newly developed immunoassay methods based on Au@PtNPs-nanobody. The accuracy of the developed method for real samples was also verified using high performance liquid chromatography (HPLC). The solid sample (10 g) was simultaneously extracted with 20 ml of methanol in a vortex mixer for 15 minutes. The mixture was then centrifuged at 4000 rpm for 5 minutes and the supernatant was collected, diluted appropriately and analyzed by HPLC. After confirming that the samples were free of atrazine, atrazine solution was added to the samples so that the final concentrations of atrazine in the samples were 1 μg/mL, 5 μg/mL, and 10 μg/mL, and then the samples were subjected to dc-ELISA. HPLC was also used for validation.
Considering the real samples detection, complex matrix can affect the recognition and binding between antibodies and coating antigens/analytes, which seriously interferes with the performance of the immunoassay and affects the accuracy of the analytical results. Therefore, matrix effects should be minimized or eliminated during sample analysis to ensure the accuracy of the immunoassay method. The simplest method for matrix elimination or reduction is to dilute the sample with the assay buffer. In this study, tap water, river water and soil were selected for matrix effect evaluation. The tap water samples confirmed to be none of atrazine were diluted directly with 1×PBS to a total dilution ratio of 2-, 4-, 8-, and 16-fold, and then different concentrations of atrazine solution were prepared with these obtained buffer solutions, respectively. […] But, tap water samples diluted […] had higher IC50 when compared with assay buffer or other diluted samples. […] Therefore, the 4-fold dilution was selected for the tap water samples. Similarly, river water samples diluted 4-fold and 8-fold had higher IC50 values compared to assay buffer or other diluted samples. […] Therefore, 16-fold dilution was selected for the river water sample (Fig. 4C). Soil samples without atrazine were used as blank samples and extracted with methanol, then diluted with 1×PBS resulting in a total dilution ratio of 10, 20, 40, 60 and 80-fold. Atrazine standard solutions were prepared using the above obtained buffer solutions. […] When the soil matrix was diluted 60 and 80-fold, there was no significant difference between their maximum absorbance and IC50 . Therefore, the 60-fold dilution was selected for the next spike and recovery study. Spiked-recovery validation using both HPLC and dc-ELISA to evaluate the precision of the dc-ELISA. […] Also, the results of the dc-ELISA method were approximately consistent with that of HPLC.

Take `CCNc1nc(NC(C)C)nc(SC)n1` [Ametryn]: in assay [1], the “IC50 (Nanobody)” value came to 0.23 µg/mL and the “CR% (Nanobody)” value is given as 27.4%. In addition, in assay [1] (listed as ametryn), the “CR% (Nanobody)” value is “about 30%”. Besides, in assay [2], the “CR% (Au@PtNPs-nanobody)” value came to 3.55% and the “IC50 (Au@PtNPs-nanobody)” value stood at 0.90 µg/mL.
With `CCNc1nc(Cl)nc(NC(C)C)n1` [Atrazine], in assay [1], the “IC50 (Nanobody)” value is 0.062 µg/mL and the “CR% (Nanobody)” value came out at 100%. In assay [2], the “CR% (Au@PtNPs-nanobody)” value is on record as 100% and the “IC50 (Au@PtNPs-nanobody)” value was 0.032 µg/mL.
As for `CCNc1nc(N)nc(Cl)n1` [deisopropylatrazine], in assay [2], the “CR% (Au@PtNPs-nanobody)” value was “less than 7%”.
Take `CCNc1nc(Cl)nc(NCC)n1` [Simazine]: the “IC50 (Nanobody)” value in assay [1] stood at 0.18 µg/mL. Further, the results for the “CR% (Nanobody)” value in assay [1] and in assay [1] (listed as simazine) were 33.6% and “about 30%”, respectively. The “CR% (Au@PtNPs-nanobody)” value was 6.01% in assay [2] and “less than 7%” in assay [2] (listed as simazine). In addition, the “IC50 (Au@PtNPs-nanobody)” value in assay [2] was determined as 0.53 µg/mL.
With `Oc1nc(O)nc(O)n1` [Cyanuric acid], in assay [1], the “IC50 (Nanobody)” value is greater than 100 µg/mL and the “CR% (Nanobody)” value is recorded as less than 0.1%. Moreover, in assay [2], the “CR% (Au@PtNPs-nanobody)” value is on record as less than 0.1% and the “IC50 (Au@PtNPs-nanobody)” value is greater than 100 µg/mL.
For the molecule `CCNc1nc(NC(C)C)[nH]c(=O)n1` [Atrazine-2-hydroxy], in assay [1], the “IC50 (Nanobody)” value was greater than 100 µg/mL and the “CR% (Nanobody)” value is less than 0.1%. Moreover, in assay [2], the “CR% (Au@PtNPs-nanobody)” value is less than 0.1% and the “IC50 (Au@PtNPs-nanobody)” value was greater than 100 µg/mL.
In the case of `Nc1nc(N)nc(N)n1` [Melamine], in assay [1], the “IC50 (Nanobody)” value was greater than 100 µg/mL and the “CR% (Nanobody)” value is reported as less than 0.1%. Moreover, in assay [2], the “CR% (Au@PtNPs-nanobody)” value is less than 0.1% and the “IC50 (Au@PtNPs-nanobody)” value was greater than 100 µg/mL.
For `CCNc1nc(NC(C)(C)C)nc(SC)n1` [Terbutryn], in assay [1], the “IC50 (Nanobody)” value is greater than 100 µg/mL. Also, the “CR% (Nanobody)” value in assay [1] is less than 0.1%; in assay [1] (listed as terbutryn), “greater than 70%”. The “CR% (Au@PtNPs-nanobody)” value in assay [2] was less than 0.1%; in assay [2] (listed as terbutryn), “greater than 10%”. Further, the “IC50 (Au@PtNPs-nanobody)” value in assay [2] was greater than 100 µg/mL.
As for `Nc1nc(N)nc(Cl)n1` [2-chloro-4,6-diamino-1,3,5-triazine], in assay [1], the “IC50 (Nanobody)” value stood at 1.1 µg/mL and the “CR% (Nanobody)” value was 5.40%. In assay [2], the “CR% (Au@PtNPs-nanobody)” value was 3.42% and the “IC50 (Au@PtNPs-nanobody)” value worked out at 0.93 µg/mL.
For `CCNc1nc(Cl)nc(NC(C)(C)C)n1` [Terbuthylazine] the same measures were 0.085 µg/mL, 72.7%, 10.9% and 0.29 µg/mL.
